Experimental data taken from ChEMBL document CHEMBL3431459, “Roche carnitine palmitoyltransferase modulator screening data (supplementary data associated with the publication CHEMBL2216752)”.
Converted amounts (≈) assume the structure as drawn.

What was measured:
[1] = biological target: T1, Carnitine O-palmitoyltransferase 1, liver isoform (Rattus norvegicus, UniProt P32198); assay: (§1) SUPPLEMENTARY: Inhibition of Carnitine palmitoyltransferase 1, liver isoform
T1 sequence (P32198 whole entry): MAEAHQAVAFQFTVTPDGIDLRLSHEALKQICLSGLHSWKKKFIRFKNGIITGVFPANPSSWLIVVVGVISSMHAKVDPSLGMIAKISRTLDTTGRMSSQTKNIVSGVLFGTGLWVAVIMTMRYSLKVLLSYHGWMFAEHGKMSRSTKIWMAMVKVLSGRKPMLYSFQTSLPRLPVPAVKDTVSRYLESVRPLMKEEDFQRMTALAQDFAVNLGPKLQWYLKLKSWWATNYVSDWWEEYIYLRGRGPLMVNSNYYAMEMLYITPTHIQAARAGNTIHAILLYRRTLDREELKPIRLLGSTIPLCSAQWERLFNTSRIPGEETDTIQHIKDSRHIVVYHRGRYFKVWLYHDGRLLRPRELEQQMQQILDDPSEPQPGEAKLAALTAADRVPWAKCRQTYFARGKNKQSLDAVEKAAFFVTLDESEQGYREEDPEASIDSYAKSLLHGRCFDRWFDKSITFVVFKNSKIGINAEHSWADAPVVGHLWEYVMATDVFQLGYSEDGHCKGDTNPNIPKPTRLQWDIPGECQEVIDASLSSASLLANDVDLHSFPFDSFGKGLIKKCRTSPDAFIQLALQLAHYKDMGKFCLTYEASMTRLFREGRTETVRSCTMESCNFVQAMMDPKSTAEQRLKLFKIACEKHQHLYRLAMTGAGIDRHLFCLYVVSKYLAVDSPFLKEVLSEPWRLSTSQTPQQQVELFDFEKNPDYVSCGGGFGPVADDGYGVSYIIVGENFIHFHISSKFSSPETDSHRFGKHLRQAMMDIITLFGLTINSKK

[2] = biological target: T2, Carnitine O-palmitoyltransferase 1, liver isoform (Homo sapiens, UniProt P50416); assay: as §1
T2 sequence (P50416 whole entry): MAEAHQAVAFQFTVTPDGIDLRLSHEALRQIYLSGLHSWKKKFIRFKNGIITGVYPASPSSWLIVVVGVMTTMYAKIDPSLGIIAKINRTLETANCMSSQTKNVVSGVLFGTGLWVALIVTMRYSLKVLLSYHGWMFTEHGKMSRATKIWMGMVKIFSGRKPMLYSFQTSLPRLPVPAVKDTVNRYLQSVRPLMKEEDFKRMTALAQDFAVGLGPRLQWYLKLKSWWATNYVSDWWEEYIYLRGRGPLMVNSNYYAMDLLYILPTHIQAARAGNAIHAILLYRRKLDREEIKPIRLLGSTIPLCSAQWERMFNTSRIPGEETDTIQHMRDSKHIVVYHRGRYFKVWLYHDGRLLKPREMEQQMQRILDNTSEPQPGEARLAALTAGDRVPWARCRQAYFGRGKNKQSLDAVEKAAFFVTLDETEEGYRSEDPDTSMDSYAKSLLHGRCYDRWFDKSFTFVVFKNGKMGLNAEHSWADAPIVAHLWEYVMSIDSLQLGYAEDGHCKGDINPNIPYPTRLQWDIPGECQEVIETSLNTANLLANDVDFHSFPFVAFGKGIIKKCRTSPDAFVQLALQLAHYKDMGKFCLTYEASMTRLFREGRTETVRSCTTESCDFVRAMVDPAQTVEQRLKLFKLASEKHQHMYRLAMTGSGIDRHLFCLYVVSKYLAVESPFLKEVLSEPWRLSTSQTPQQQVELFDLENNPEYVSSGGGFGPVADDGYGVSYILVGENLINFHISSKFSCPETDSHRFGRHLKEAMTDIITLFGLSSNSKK

[3] = biological target: T3, Carnitine O-palmitoyltransferase 2, mitochondrial (Rattus norvegicus, UniProt P18886); assay: (§2) SUPPLEMENTARY: Inhibition of Carnitine palmitoyltransferase 2
T3 sequence (P18886 whole entry): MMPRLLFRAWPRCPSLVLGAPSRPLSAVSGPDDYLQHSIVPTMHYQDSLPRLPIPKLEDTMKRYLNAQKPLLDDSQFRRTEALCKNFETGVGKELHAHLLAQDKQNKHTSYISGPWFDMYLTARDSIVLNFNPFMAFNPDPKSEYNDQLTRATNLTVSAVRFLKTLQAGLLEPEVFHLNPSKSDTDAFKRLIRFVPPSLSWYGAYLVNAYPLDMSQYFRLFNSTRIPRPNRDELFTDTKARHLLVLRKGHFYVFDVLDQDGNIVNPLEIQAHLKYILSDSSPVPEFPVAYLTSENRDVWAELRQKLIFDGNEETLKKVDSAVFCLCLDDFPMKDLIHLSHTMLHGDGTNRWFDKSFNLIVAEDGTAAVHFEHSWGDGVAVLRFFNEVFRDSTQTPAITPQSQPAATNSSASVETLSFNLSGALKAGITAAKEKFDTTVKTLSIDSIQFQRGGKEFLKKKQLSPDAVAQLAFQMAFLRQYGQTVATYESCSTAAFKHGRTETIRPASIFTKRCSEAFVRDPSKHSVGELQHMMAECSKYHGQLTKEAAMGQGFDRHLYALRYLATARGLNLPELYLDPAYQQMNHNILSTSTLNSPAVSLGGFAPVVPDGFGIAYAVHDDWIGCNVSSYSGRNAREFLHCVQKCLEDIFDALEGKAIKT

[4] = biological target: T4, Carnitine O-palmitoyltransferase 2, mitochondrial (Homo sapiens, UniProt P23786); assay: as §2
T4 sequence (P23786 whole entry): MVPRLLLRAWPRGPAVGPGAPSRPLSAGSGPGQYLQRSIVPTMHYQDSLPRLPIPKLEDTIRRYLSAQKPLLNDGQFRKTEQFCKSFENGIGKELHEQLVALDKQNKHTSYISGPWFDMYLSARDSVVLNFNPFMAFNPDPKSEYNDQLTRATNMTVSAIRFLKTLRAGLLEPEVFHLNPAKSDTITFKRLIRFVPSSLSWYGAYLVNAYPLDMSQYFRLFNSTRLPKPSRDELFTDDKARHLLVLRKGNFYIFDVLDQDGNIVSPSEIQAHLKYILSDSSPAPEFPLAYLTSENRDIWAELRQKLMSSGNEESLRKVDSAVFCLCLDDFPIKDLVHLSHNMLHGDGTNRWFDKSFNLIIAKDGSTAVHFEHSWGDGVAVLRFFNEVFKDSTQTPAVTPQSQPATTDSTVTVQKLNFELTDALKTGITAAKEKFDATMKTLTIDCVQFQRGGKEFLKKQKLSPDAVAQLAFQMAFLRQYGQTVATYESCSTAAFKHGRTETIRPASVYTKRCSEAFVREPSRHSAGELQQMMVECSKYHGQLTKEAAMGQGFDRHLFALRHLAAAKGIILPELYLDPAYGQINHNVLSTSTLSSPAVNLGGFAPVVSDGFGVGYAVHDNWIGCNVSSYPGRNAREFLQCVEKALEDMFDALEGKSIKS

[5] = SUPPLEMENTARY: PAMPA permeability assay; type: physicochemical; details: read-out: Permeability
[6] = SUPPLEMENTARY: Lyophilisation Solubility Assay (LYSA); type: physicochemical; details: read-out: Kinetic_solubility
[7] = biological target: T5, Carnitine O-palmitoyltransferase 1, muscle isoform (Homo sapiens, UniProt Q92523); assay: SUPPLEMENTARY: Inhibition of Carnitine palmitoyltransferase 1, muscle isoform; design: species or system Muscle tissue
T5 sequence (Q92523 whole entry): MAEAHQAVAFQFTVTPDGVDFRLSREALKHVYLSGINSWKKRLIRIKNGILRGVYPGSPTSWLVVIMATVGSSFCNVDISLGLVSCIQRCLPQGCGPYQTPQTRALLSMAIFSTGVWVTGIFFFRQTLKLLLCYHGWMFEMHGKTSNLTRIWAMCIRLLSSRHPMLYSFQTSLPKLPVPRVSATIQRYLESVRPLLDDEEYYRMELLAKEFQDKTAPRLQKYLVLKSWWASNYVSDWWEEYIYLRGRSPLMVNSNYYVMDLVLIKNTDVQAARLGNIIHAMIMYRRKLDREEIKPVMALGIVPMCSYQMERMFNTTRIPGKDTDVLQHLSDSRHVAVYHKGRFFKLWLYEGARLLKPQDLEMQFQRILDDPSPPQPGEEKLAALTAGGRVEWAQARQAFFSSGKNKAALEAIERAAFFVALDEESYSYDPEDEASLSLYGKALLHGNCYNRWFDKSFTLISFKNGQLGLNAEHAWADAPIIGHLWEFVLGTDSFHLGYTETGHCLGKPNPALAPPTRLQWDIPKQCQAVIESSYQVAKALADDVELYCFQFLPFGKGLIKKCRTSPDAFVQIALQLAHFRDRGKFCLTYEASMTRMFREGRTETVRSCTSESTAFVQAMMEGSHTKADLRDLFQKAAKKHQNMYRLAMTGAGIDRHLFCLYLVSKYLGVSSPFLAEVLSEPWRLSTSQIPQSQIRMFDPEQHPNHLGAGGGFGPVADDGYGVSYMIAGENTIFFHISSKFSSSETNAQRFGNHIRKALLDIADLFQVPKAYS

Row | SMILES | IC50 [1] [µM] | IC50 [2] [µM] | IC50 [3] [µM] | IC50 [4] [µM] | Papp [5] [×10⁻⁶ cm/s] | solubility kinetic [6] [µg/mL] | IC50 [7] [µM]
1 | CCn1cc(Sc2cc(Cl)ccc2OC)c2cc(C(=O)Nc3ccc(C(=O)O)cc3)ccc21 | 0.473 | 0.169 | > 100 | > 100 | 0.71 | 4 (≈ 8.32 µM) | > 100
2 | COc1ccc(Cl)cc1S(=O)(=O)N1CCOc2c(C)cc(C(=O)Nc3ccc(C(=O)O)cc3)cc21 | 0.0413 | 0.0463 | 4.33 | 0.554 | 1.68 | 2 (≈ 3.87 µM) | 21.1
3 | COc1ccc(Cl)cc1CN1C(=O)OC(C)(C)c2ccc(C(=O)Nc3ccc(C(=O)O)c(Cl)c3)cc21 | 0.0508 | 0.245 | 23.9 | 4.06 | 1.1 | 30 (≈ 56.7 µM) | 1.22
4 | COc1ccc(Cl)cc1S(=O)(=O)N1COc2c(F)cc(C(=O)Nc3ccc(CC(=O)O)cc3)cc21 | 0.132 | 0.155 | > 100 | > 100 | 2.84 | 38 (≈ 72.9 µM) | 0.614
5 | COc1ccc(Cl)cc1S(=O)(=O)c1nn(C)c2ccc(C(=O)Nc3ccc(C(=O)O)cc3)cc12 | 0.0648 | 0.05 | > 100 | > 100 | 1.89 | 8 (≈ 16 µM) | > 100
6 | COc1ccc(Cl)cc1S(=O)(=O)N1COc2c(F)cc(C(=O)Nc3ccc(C(=O)O)cc3)cc21 | 0.0634 | 0.0425 | > 100 | 15.1 | 2.2 | 15 (≈ 29.6 µM) | 17.6
7 | O=C(COc1ccccc1)N1CCCC[C@@H]1c1noc(C2C[C@@H]3CC[C@H]2C3)n1 (some centres not stated) | 0.31 | 0.0326 | > 100 | 19.9 |  | < 1 | > 100
8 | O=C([O-])c1cccc(-c2csc([C@H]3CCCCN3C(=O)COc3ccccc3)n2)c1.[Na+] | 0.0964 | 0.0197 | 49.6 | 28.7 | 3.55 | > 525 | 
9 | O=C(COc1ccccc1)N1CCCC[C@@H]1c1nc(-c2cccc([N+](=O)[O-])n2)no1 | 0.76 | 0.254 |  | 17.2 | 5.48 | 10 (≈ 24.4 µM) | > 100
10 | COc1ccc(Cl)cc1S(=O)(=O)N1CCSc2ccc(C(=O)Nc3ccc(C(=O)O)cc3)cc21 | 0.0569 | 0.0654 | > 100 | > 100 |  | 4 (≈ 7.71 µM) | > 100
11 | O=C(COc1ccccc1)N1CCCCC1c1ncc(-c2cccc([N+](=O)[O-])c2)o1 (configuration not stated) | 0.237 | 0.243 |  | 12.8 | 0.66 | 4 (≈ 9.82 µM) | > 100
12 | COc1ccc(Cl)cc1S(=O)(=O)N(c1cc(C(=O)Nc2ccn(CC(=O)O)n2)cc2c1OCO2)C(C)C | 6.02 | 1.07 | > 100 | > 100 |  |  | 5.28
13 | COc1ccc(Cl)cc1S(=O)(=O)N1CCc2ccc(C(=O)Nc3ccc(C(=O)O)cc3)cc21 | 0.055 |  | 7.82 |  | 2.78 | 5 (≈ 10.3 µM) | > 100
14 | COc1ccc(Cl)cc1S(=O)(=O)N1CCOc2c(C(F)F)cc(C(=O)Nc3ccc(C(=O)O)cc3)cc21 | 2.91 | 0.325 | 16 | 1.44 |  |  | > 100
15 | O=C([C@H]1CCCCN1C(=O)COc1ccccc1)N1Cc2ccc(O[C@H]3CCOC3)cc2C1 | 0.0357 | 0.118 | 1.33 | 0.551 |  |  | > 100
16 | Cc1cc(C)cc(S(=O)(=O)c2n[nH]c3ccc(C(=O)Nc4ccccc4)cc23)c1 |  | 0.221 | > 100 | > 100 |  | < 1 | > 100
17 | O=C(COc1ccccc1)N1CCCC[C@@H]1c1nc(-c2ccc(Cl)cc2)cs1 | 1.23 | 1.38 | > 100 | > 100 |  |  | > 100
